Laboratory results from patent US8987195B2 (priority 2012, dated 2015).
Like-named read-outs stand apart in the source and are kept apart here.

Assays:
[1] = tested on: HCV genotype 1b replicon; test: HCV replicon assay, genotype 1b replicon EC50; format: cell-based, Hepatitis C virus; conditions: read-out: EC50 [gt-1b]
In short: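 Stable neomycin phosphotransferase-encoding replicon cell lines, kept under G418 selection beforehand, were plated with a compound dilution series without G418 and incubated 24-48 hours. Replicon RNA was then quantified, or luciferase activity read. EC50 was calculated as percent of DMSO control by four-parameter fit.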

[2] = molecular target: HCV NS3/4A protease genotype 1b (Hepatitis C virus genotype 1b, UniProt P26663); test: HCV NS3/4A protease time-resolved fluorescence (TRF) assay, Ki against genotype 1b; format: biochemical
Chain of HCV NS3/4A protease genotype 1b (P26663 1027-1657): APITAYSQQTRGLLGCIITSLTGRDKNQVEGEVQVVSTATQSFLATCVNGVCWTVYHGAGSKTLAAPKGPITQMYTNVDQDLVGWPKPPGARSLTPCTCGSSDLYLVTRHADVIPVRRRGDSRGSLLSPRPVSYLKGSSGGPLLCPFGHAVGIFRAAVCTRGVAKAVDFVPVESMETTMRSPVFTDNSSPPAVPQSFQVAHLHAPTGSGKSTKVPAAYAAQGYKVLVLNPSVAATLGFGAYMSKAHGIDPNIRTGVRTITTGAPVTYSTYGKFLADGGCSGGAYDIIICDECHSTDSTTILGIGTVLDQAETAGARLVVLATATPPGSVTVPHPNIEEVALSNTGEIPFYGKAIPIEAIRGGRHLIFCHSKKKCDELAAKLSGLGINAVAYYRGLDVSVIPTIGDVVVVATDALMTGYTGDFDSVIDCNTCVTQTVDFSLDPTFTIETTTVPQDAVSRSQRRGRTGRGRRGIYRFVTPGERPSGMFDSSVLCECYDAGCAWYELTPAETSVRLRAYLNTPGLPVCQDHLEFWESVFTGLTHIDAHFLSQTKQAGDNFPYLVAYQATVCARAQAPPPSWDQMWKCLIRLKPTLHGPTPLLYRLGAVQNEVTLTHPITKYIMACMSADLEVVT
Chain of HCV NS3/4A protease genotype 1b (P26663 1658-1711): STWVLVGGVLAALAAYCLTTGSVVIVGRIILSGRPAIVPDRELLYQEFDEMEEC
In short: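 Ki values come from IC50 fits corrected for substrate concentration and KM. The time-resolved fluorescence protease reaction used 25 nM peptide substrate, 2.5 h, room temperature, pH 7.5 HEPES buffer, after 30 min enzyme–inhibitor preincubation.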

[3] = Hepatitis C virus, genotype 1b replicon
[4] = IC50 [gt-1b] (nM), NS3/4A genotype 1b, enzyme 0.2 nM

Row | Structure (SMILES) | EC50 [1, 3] [nM] | IC50 [2, 4] [nM] | further results
1 | Cc1nc2ccccc2c2c1O[C@]1(CC2)C[C@H]2C(=O)N[C@]3(C(=O)NS(=O)(=O)C4(C)CC4)C[C@H]3/C=C\CCCCC[C@H](NS(C)(=O)=O)C(=O)N2C1 [Example 229, (2R,6S,12Z,13aS,14aR,16aS)-5′-methyl-N-[(1-methylcyclopropyl)sulfonyl]-6-[(methylsulfonyl)amino]-5,16-dioxo-1,1′,2′,6,7,8,9,10,11,13a,14,15,16,16a-tetradecahydrospiro[cyclopropa[e]pyrrolo[1,2-a][1,4]diazacyclopentadecine-2,3′-pyrano[2,3-c]quinoline]-14a(5H)-carboxamide] | 14.6 | 0.122 | 
2 | Cc1nc2ccccc2c2c1O[C@]1(CC2)C[C@H]2C(=O)N[C@]3(C(=O)NS(=O)(=O)C4(C)CC4)C[C@H]3/C=C\CCCCC[C@H](N(CCC(C)(C)C)CCC(C)(C)C)C(=O)N2C1 [Example 163, (2R,6S,12Z,13aS,14aR,16aS)-6-[bis(3,3-dimethylbutyl)amino]-5′-methyl-N-[(1-methylcyclopropyl)sulfonyl]-5,16-dioxo-1,1′,2′,6,7,8,9,10,11,13a,14,15,16,16a-tetradecahydrospiro[cyclopropa[e]pyrrolo[1,2-a][1,4]diazacyclopentadecine-2,3′-pyrano[2,3-c]quinoline]-14a(5H)-carboxamide] | > 100 | 6.21 | 
3 | Cc1ccc2nc(C(F)(F)F)c3c(c2c1)CC[C@]1(C[C@H]2C(=O)N[C@]4(C(=O)NS(=O)(=O)C5(C)CC5)C[C@H]4/C=C\CCCCC[C@H](NC(=O)OCCCN4CCOCC4)C(=O)N2C1)O3 [Example 424, 3-(morpholin-4-yl)propyl [(2R,6S,12Z,13aS,14aR,16aS)-9′-methyl-14a-{[(1-methylcyclopropyl)sulfonyl]carbamoyl}-5,16-dioxo-5′-(trifluoromethyl)-1,1′,2′,5,6,7,8,9,10,11,13a,14,14a,15,16,16a-hexadecahydrospiro[cyclopropa[e]pyrrolo[1,2-a][1,4]diazacyclopentadecine-2,3′-pyrano[2,3-c]quinolin]-6-yl]carbamate] |  |  | EC50 ([1]; Hepatitis C virus, HCV replicon, genotype 1b): 15.1 nM; IC50 ([2]; IC50 [gt-1b], NS3/4A protease TRF assay, genotype 1b enzyme 0.2 nM): 0.033 nM
4 | Cc1nc2ccccc2c2c1O[C@]1(CC2)C[C@H]2C(=O)N[C@]3(C(=O)NS(=O)(=O)C4(C)CC4)C[C@H]3/C=C\CCCCC[C@H](NC(=O)OC(C)(C(F)(F)F)C(F)(F)F)C(=O)N2C1 [Example 307, 1,1,1,3,3,3-hexafluoro-2-methylpropan-2-yl [(2R,6S,12Z,13aS,14aR,16aS)-5′-methyl-14a-{[(1-methylcyclopropyl)sulfonyl]carbamoyl}-5,16-dioxo-1,1′,2′,5,6,7,8,9,10,11,13a,14,14a,15,16,16a-hexadecahydrospiro[cyclopropa[e]pyrrolo[1,2-a][1,4]diazacyclopentadecine-2,3′-pyrano[2,3-c]quinolin]-6-yl]carbamate] | 1080 | 0.019 | 
5 | CC(C)OC(=O)N[C@H]1CCCCC/C=C\[C@@H]2C[C@@]2(C(=O)NS(=O)(=O)C2(C)CC2)NC(=O)[C@@H]2C[C@]3(CCc4c(c(C(F)F)nc5ccccc45)O3)CN2C1=O [Example 317, propan-2-yl [(2R,6S,12Z,13aS,14aR,16aS)-5′-(difluoromethyl)-14a-{[(1-methylcyclopropyl)sulfonyl]carbamoyl}-5,16-dioxo-1,1′,2′,5,6,7,8,9,10,11,13a,14,14a,15,16,16a-hexadecahydrospiro[cyclopropa[e]pyrrolo[1,2-a][1,4]diazacyclopentadecine-2,3′-pyrano[2,3-c]quinolin]-6-yl]carbamate] | 3.25 | 0.023 | 
6 | Cc1nc2ccccc2c2c1O[C@]1(CC2)C[C@H]2C(=O)N[C@]3(C(=O)NS(=O)(=O)C4(C)CC4)C[C@H]3/C=C\CCCCC[C@H](NC(=O)N(C)c3ccccc3)C(=O)N2C1 [Example 292, (2R,6S,12Z,13aS,14aR,16aS)-5′-methyl-N-[(1-methylcyclopropyl)sulfonyl]-6-{[methyl(phenyl)carbamoyl]amino}-5,16-dioxo-1,1′,2′,6,7,8,9,10,11,13a,14,15,16,16a-tetradecahydrospiro[cyclopropa[e]pyrrolo[1,2-a][1,4]diazacyclopentadecine-2,3′-pyrano[2,3-c]quinoline]-14a(5H)-carboxamide] |  |  | EC50 ([1]; Hepatitis C virus, genotype 1b replicon, HCOOH salt): 27.4 nM; IC50 ([2]; IC50 [gt-1b] (nM), NS3/4A genotype 1b, enzyme 0.2 nM, HCOOH salt): 0.077 nM
7 | Cc1nc2ccccc2c2c1O[C@]1(CC2O)C[C@H]2C(=O)N[C@]3(C(=O)NS(=O)(=O)C4(C)CC4)C[C@H]3/C=C\CCCCC[C@H](NC(=O)OC(C)(C)C)C(=O)N2C1 (stereo partly drawn) [Example 120, tert-butyl [(2S,6S,12Z,13aS,14aR,16aS)-1′-hydroxy-5′-methyl-14a-{[(1-methylcyclopropyl)sulfonyl]carbamoyl}-5,16-dioxo-1,1′,2′,5,6,7,8,9,10,11,13a,14,14a,15,16,16a-hexadecahydrospiro[cyclopropa[e]pyrrolo[1,2-a][1,4]diazacyclopentadecine-2,3′-pyrano[2,3-c]quinolin]-6-yl]carbamate] |  | 0.032 | EC50 ([1]; genotype 1b replicon): 19 nM
8 | COc1ccc2nc(C(C)C)c3c(c2c1)CC[C@]1(C[C@H]2C(=O)N[C@]4(C(=O)NS(=O)(=O)C5(C)CC5)C[C@H]4/C=C\CCCCC[C@H](NC(=O)OC(C)(C)C(F)(F)F)C(=O)N2C1)O3 [Example 295, 1,1,1-trifluoro-2-methylpropan-2-yl [(2R,6S,12Z,13aS,14aR,16aS)-9′-methoxy-14a-{[(1-methylcyclopropyl)sulfonyl]carbamoyl}-5,16-dioxo-5′-(propan-2-yl)-1,1′,2′,5,6,7,8,9,10,11,13a,14,14a,15,16,16a-hexadecahydrospiro[cyclopropa[e]pyrrolo[1,2-a][1,4]diazacyclopentadecine-2,3′-pyrano[2,3-c]quinolin]-6-yl]carbamate] | 2.36 | 0.024 | 
9 | COc1cccc(N[C@H]2CCCCC/C=C\[C@@H]3C[C@@]3(C(=O)NS(=O)(=O)C3(C)CC3)NC(=O)[C@@H]3C[C@]4(CCc5c(c(C)nc6ccccc56)O4)CN3C2=O)c1 [Example 341, (2R,6S,12Z,13aS,14aR,16aS)-6-[(3-methoxyphenyl)amino]-5′-methyl-N-[(1-methylcyclopropyl)sulfonyl]-5,16-dioxo-1,1′,2′,6,7,8,9,10,11,13a,14,15,16,16a-tetradecahydrospiro[cyclopropa[e]pyrrolo[1,2-a][1,4]diazacyclopentadecine-2,3′-pyrano[2,3-c]quinoline]-14a(5R)-carboxamide] | 1.04 | 0.172 | 
10 | COc1ccc2nc(C)c3c(c2c1)[C@H](F)C[C@]1(C[C@H]2C(=O)N[C@]4(C(=O)NS(=O)(=O)C5(C)CC5)C[C@H]4/C=C\CCCCC[C@H](NC(=O)OC(C)(C)C)C(=O)N2C1)O3 [Example 56, tert-Butyl ((1′R,2S,6S,13aS,14aR,16aS,Z)-1′-fluoro-9′-methoxy-5′-methyl-14a-(((1-methylcyclopropyl)sulfonyl)carbamoyl)-5,16-dioxo-1′,2′,3,5,6,7,8,9,10,11,13a,14,14a, 15,16,16a-hexadecahydro-1H-spiro[cyclopropa[e]pyrrolo[1,2-a][1,4]diazacyclopentadecine-2,3′-pyrano[2,3-c]quinolin]-6-yl)carbamate] |  |  | EC50 ([1]; Hepatitis C virus, genotype 1b replicon, K+ salt): 1.66 nM; IC50 ([2]; IC50 [gt-1b] (nM), NS3/4A genotype 1b, enzyme 0.2 nM, K+ salt): 0.008 nM
